Structures are written as SMILES.

Broadly, the inhibition is the drop in the measured response relative to a control, in per cent.

The target of assay [1] is T1, rat B1R (bradykinin receptor 1) (Rattus norvegicus, UniProt P97583).
T1 construct: expressed in transfected cells; host or cells: CHO K1 cells
T1 sequence (P97583 1-337): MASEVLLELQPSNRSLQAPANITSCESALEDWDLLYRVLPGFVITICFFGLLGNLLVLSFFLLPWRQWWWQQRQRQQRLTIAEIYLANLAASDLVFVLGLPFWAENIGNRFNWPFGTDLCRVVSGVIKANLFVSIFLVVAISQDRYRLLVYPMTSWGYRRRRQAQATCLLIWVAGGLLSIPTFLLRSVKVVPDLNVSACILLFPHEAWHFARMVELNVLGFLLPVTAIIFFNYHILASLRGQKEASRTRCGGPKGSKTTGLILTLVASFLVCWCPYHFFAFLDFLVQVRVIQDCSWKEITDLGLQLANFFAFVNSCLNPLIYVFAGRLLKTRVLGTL
The assay can be described thus: FLIPR Ca2+ assay (Fluo-4) on CHO K1 cells stably transfected with the B1R gene of the rat (rB1R cells): % inhibition at 10 μM / IC50, agonist Des-Arg9-bradykinin. Format: cell-based. As to conditions: CHO-K1, rat B1R. Put shortly: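 Stable CHO K1 lines, Fluo-4 dye, probenecid-containing buffer. Cpd 10 μM or dose range, 10–20 min, then EC80 agonist (h: Lys-Des-Arg9-BK; r: Des-Arg9-BK). Readout peak FC; % inhibition vs max; IC50 from n=2–3, N≥2.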

Assay [2] concerns the target T2, human B1R (bradykinin receptor 1) (Homo sapiens, UniProt P46663).
T2 construct: expressed in transfected cells; host or cells: CHO K1 cells
T2 sequence (P46663 1-353): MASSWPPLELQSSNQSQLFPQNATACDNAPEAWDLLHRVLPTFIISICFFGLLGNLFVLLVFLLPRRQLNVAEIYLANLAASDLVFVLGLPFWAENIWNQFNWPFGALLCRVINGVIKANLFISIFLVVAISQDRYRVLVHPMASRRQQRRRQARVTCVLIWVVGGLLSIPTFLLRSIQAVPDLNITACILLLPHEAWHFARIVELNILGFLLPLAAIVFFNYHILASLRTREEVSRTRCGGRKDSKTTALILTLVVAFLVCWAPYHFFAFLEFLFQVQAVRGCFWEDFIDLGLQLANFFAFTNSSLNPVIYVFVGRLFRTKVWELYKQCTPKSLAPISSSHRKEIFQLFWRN
As to the kind of experiment: FLIPR Ca2+ assay (Fluo-4) on CHO K1 cells stably transfected with the human B1R gene (hB1R cells): % inhibition at 10 μM / IC50, agonist Lys-Des-Arg9-bradykinin. In kind it is cell-based. As to conditions: CHO-K1, human B1R. As for the experimental part: The agonistic or antagonistic action of substances can be quantified on the bradykinin receptor 1 (B1R) of the human and rat species with ectopically expressing cell lines (CHO K1 cells) and with the aid of a Ca^2+-sensitive dyestuff (Fluo-4) in a fluorescent imaging plate reader (FLIPR). The figure in % activation is based on the Ca^2+ signal after addition of Lys-Des-Arg^9-bradykinin (0.5 nM) or Des-Arg^9-bradykinin (100 nM). Antagonists lead to a suppression of the Ca^2+ inflow after addition of the agonist. % inhibition compared with the maximum achievable inhibition is stated.
The agonistic or antagonistic action of substances can be determined on the bradykinin receptor 1 (B1R) of the human and rat species with the following assay. In accordance with this assay, the Ca^2+ inflow through the channel is quantified with the aid of a Ca^2+-sensitive dyestuff (type Fluo-4, Molecular Probes Europe BV, Leiden, Holland) in a fluorescent imaging plate reader (FLIPR, Molecular Devices, Sunnyvale, USA).
Chinese hamster ovary cells (CHO K1 cells) transfected stably with the human B1R gene (hB1R cells) or the B1R gene of the rat (rB1R cells) are used. For functional studies, these cells are plated out on black 96-well plates with a clear base (BD Biosciences, Heidelberg, Germany or Greiner, Frickenhausen, Germany) in a density of 20,000-35,000 cells/well. The cells are left overnight at 37° C. and 5% CO2 in culture medium (hB1R cells: Nutrient Mixture Ham's F12, Gibco Invitrogen GmbH, Karlsruhe, Germany or DMEM, Sigma-Aldrich, Taufkirchen, Germany; rB1R cells: D-MEM/F12, Gibco Invitrogen GmbH, Karlsruhe, Germany) with 10 vol. % FBS (foetal bovine serum, Gibco Invitrogen GmbH, Karlsruhe, Germany or PAN Biotech GmbH, Aidenbach, Germany). On the following day, the cells are loaded for 60 min at 37° C. with 2.13 μM Fluo-4 (Molecular Probes Europe BV, Leiden Holland) in HBSS buffer (Hank's buffered saline solution, Gibco Invitrogen GmbH, Karlsruhe, Germany) with 2.5 mM probenecid (Sigma-Aldrich, Taufkirchen, Germany) and 10 mM HEPES (Sigma-Aldrich, Taufkirchen, Germany). The plates are then washed 2× with HBSS buffer, and HBSS buffer which additionally contains 0.1% BSA (bovine serum albumin; Sigma-Aldrich, Taufkirchen, Germany), 5.6 mM glucose and 0.05% gelatine (Merck KGaA, Darmstadt, Germany) is added. After a further incubation of 20 minutes at room temperature, the plates are inserted into the FLIPR for the Ca^2+ measurement. Alternatively, the plates are washed with buffer A (15 mM HEPES, 80 mM NaCl, 5 mM KCl, 1.2 mM CaCl2, 0.7 mM MgSO4, 2 g/l glucose, 2.5 mM probenecid), buffer A is added and the plates are loaded with 2.5 μM Fluo-4 and 0.025% Pluronic F127 (Sigma-Aldrich, Taufkirchen, Germany). Thereafter, the cells are washed 2× with buffer A and incubated for 30 minutes at room temperature with buffer A, which additionally contains 0.05% BSA and 0.05% gelatine, and thereafter inserted into the FLIPR for the Ca^2+ measurement. The Ca^2+-dependent fluorescence is measured here before and after addition of substances (λex=488 nm, λem=540 nm). Quantification is by measurement of the highest fluorescence intensity (FC, fluorescence counts) over time.
The FLIPR protocol consists of 2 additions of substance. Test substances (10 μM) are first pipetted on to the cells and the Ca^2+ inflow is compared with the control (hB1R: Lys-Des-Arg^9-bradykinin>=50 nM; rB1R: Des-Arg^9-bradykinin 10 μM). This gives the result in % activation based on the Ca^2+ signal after addition of Lys-Des-Arg^9-bradykinin (>=50 nM) or Des-Arg^9-bradykinin (10 μM). After incubation for 10-20 minutes, Lys-Des-Arg^9-bradykinin (hB1R) or Des-Arg^9-bradykinin (rB1R) in the concentration of the EC80 is applied and the inflow of Ca^2+ is likewise determined. Antagonists lead to a suppression of the Ca^2+ inflow. % inhibition compared with the maximum achievable inhibition is calculated.
For determination of the IC50 value, the substances are added in various concentrations. […]

With `O=C(NC1CCc2ccc(C(=O)N3CCCC4(CC3)CCN(c3ccncc3)CC4)cc21)c1ccccc1Cl` (stereo not shown) [Example H-138, 2-Chloro-N-[6-(3-pyridin-4-yl-3,10-diazaspiro[5.6]dodecane-10-carbonyl)-2,3-dihydro-1H-inden-1-yl]-benzamide], the inhibition at 10 µM in assay [1] was determined as 102%; in assay [2], 100%.
The matching figures for `O=C(N[C@@H]1CCCc2ccc(C(=O)N3CCCC4(CCN(c5ccncc5)C4)C3)cc21)c1ccccc1Cl` (stereo partly drawn) [Example H-70, 2-Chloro-N-[(1R)-7-(2-pyridin-4-yl-2,9-diazaspiro[4.5]decane-9-carbonyl]-1,2,3,4-tetrahydro-naphthalen-1-yl]-benzamide]: 103% and 90%.
For the compound `O=C(N[C@@H]1CCc2ccc(C(=O)N3CCC4(CC3)CCN(c3ccncc3)C4)cc21)c1c(Cl)cccc1C(F)(F)F` [Example H-83, 2-Chloro-N-[(1R)-6-(3-pyridin-4-yl-3,8-diazaspiro[4.5]decane-8-carbonyl)-2,3-dihydro-1H-inden-1-yl]-6-(trifluoromethyl)-benzamide], the figures for the inhibition at 10 µM in assay [1] and in assay [2] were 105% and 100%, respectively.
In the case of `CN(C(=O)c1cc(Cl)ccc1C(F)(F)F)C1CCc2ccc(C(=O)N3CCC4(CC3)CCN(c3ccncc3)CC4)cc21` (stereo not shown) [IND_CC-301, 5-Chloro-N-methyl-N-[6-(9-pyridin-4-yl-3,9-diazaspiro[5.5]undecane-3-carbonyl)-2,3-dihydro-1H-inden-1-yl]-2-(trifluoromethyl)-benzamide], the inhibition at 10 µM in assay [1] stood at 107%; in assay [2], 94%.
Taken in the same sequence, the figures for `O=C(N[C@@H]1CCc2ccc(C(=O)N3CCC4(CC3)CCN(c3ccncc3)C4)cc21)c1cncnc1` [Example H-86, N-[(1R)-6-(3-Pyridin-4-yl-3,8-diazaspiro[4.5]decane-8-carbonyl)-2,3-dihydro-1H-inden-1-yl]-pyrimidine-5-carboxylic acid amide] were 79% and 95%.
The matching figures for `CN(C(=O)c1cccc(Cl)c1Cl)C1CCc2ccc(C(=O)N3CCC4(CC3)CCN(c3ccncc3)CC4)cc21` (stereo not shown) [IND_CC-265, 2,3-Dichloro-N-methyl-N-[6-(9-pyridin-4-yl-3,9-diazaspiro[5.5]undecane-3-carbonyl)-2,3-dihydro-1H-inden-1-yl]-benzamide]: 107% and 88%.
For `CN1CCN(C(=O)C2CCC3(CC2)CCN(C(=O)c2ccc4c(c2)[C@H](NC(=O)c2ccccc2Cl)CC4)CC3)CC1` [Example H-29, 2-chloro-N-[(1R)-6-[9-(4-methyl-piperazine-1-carbonyl)-3-azaspiro[5.5]undecane-3-carbonyl]-2,3-dihydro-1H-inden-1-yl]-benzamide], the inhibition at 10 µM came out at 55% in assay [1] and 33% in assay [2].
The matching figures for `O=C(c1ccc2c(c1)C(N(C(=O)c1ccccc1Cl)C1CC1)CC2)N1CCC2(CC1)CCN(c1ccc(F)cc1)CC2` (stereo not shown) [Ind_CC-115, 2-chloro-N-cyclopropyl-N-[6-[9-(4-fluorophenyl)-3,9-diazaspiro[5.5]undecane-3-carbonyl]-2,3-dihydro-1H-inden-1-yl]-benzamide]: 64% and 22%.
As for `O=C(NC1CCc2ccc(C(=O)N3CCC4(CCN(Cc5ccc[nH]5)CC4)CC3)cc21)c1ccccc1Cl` (stereo not shown) [IND_CC-507, 2-Chloro-N-[6-[9-(1H-pyrrol-2-yl-methyl)-3,9-diazaspiro[5.5]undecane-3-carbonyl]-2,3-dihydro-1H-inden-1-yl]-benzamide], the inhibition at 10 µM in assay [1] turned out to be 100%; in assay [2], 2%.
`CN(C(=O)c1ccccc1Cl)C1CCc2ccc(C(=O)N3CCC4(CC3)CCC(c3ccc(F)cc3)(N(C)C)CC4)cc21` (stereo not shown) [Ind_CC-110, 2-chloro-N-[6-[9-dimethylamino-9-(4-fluorophenyl)-3-azaspiro[5.5]undecane-3-carbonyl]-2,3-dihydro-1H-inden-1-yl]-N-methyl-benzamide]: the results for the inhibition at 10 µM in assay [1] and in assay [2] were 79% and 52%, respectively.
The matching figures for `O=C(NC1CCc2ccc(C(=O)N3CCC4(CC3)CCN(c3ccc(C(F)(F)F)cc3)CC4)cc21)c1cc(Cl)ccc1Cl` (stereo not shown) [IND_CC-209, 2,5-Dichloro-N-[6-[9-[4-(trifluoromethyl)-phenyl]-3,9-diazaspiro[5.5]undecane-3-carbonyl]-2,3-dihydro-1H-inden-1-yl]-benzamide]: 102% and 20%.
For the compound `O=C(NC1CCc2ccc(C(=O)N3CCC4(CC3)CCN(c3ccncc3)C4)cc21)c1cc(F)c(F)cc1Cl` (stereo not shown) [IND_CC-229, 2-Chloro-4,5-difluoro-N-[6-(2-pyridin-4-yl-2,8-diazaspiro[4.5]decane-8-carbonyl)-2,3-dihydro-1H-inden-1-yl]-benzamide], the inhibition at 10 µM in assay [1] was 102%; in assay [2], 100%.
For `COc1ccc2cc(C(=O)N[C@@H]3CCc4ccc(C(=O)N5CCC6(CCN(c7ccncc7)CC6)C5)cc43)ccc2c1` [Example H-56, 6-Methoxy-N-[(1R)-6-(8-pyridin-4-yl-3,8-diazaspiro[4.5]decane-3-carbonyl)-2,3-dihydro-1H-inden-1-yl]-naphthalene-2-carboxylic acid amide], the inhibition at 10 µM in assay [1] turned out to be 68%; in assay [2], 94%.
With `O=C(NC1CCc2ccc(C(=O)N3CCC4(CC3)CCN(c3ccncc3)C4)cc21)c1ccc(F)cc1Cl` (stereo not shown) [IND_CC-263, 2-Chloro-4-fluoro-N-[6-(2-pyridin-4-yl-2,8-diazaspiro[4.5]decane-8-carbonyl)-2,3-dihydro-1H-inden-1-yl]-benzamide], the inhibition at 10 µM is 81% in assay [1] and 100% in assay [2].

Source of the values: patent US8455475B2 (Gruenenthal GmbH, priority 2009, dated 2013).
